In PubChem BioAssay AID624285 (Broad Institute, 2012) one finds AC50 data, which are given here for 62 molecules.

Calls of active or inactive are those of the source.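 Rule for the calls: active = signal-decreasing dose-response curve whose fitted half-maximal concentration is at or below twice the highest valid tested dose; inconclusive = flat fit at 30 to 70% signal loss, or poor fit; inactive = the rest.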

The subject of this assay is NIH3T3/HeLa viability, CellTiter-Glo ATP luminescence, 24 h. Briefly: cell viability loss after compound exposure – 24 h, luminescence, cherry-picked samples, cytotoxicity control for PDI inhibitor project, dose response (AID 624285).

As usually defined, the AC50 is the midpoint of the concentration-response curve, whichever way the signal moves.

For `O=C(Nc1nccs1)c1ccc(-c2ccccc2[N+](=O)[O-])o1`, the AC50 was > 70 µM (inactive). As to `C[C@]12CC[C@H]3C(=CCc4cc(O)ccc43)[C@@H]1CCC2=O`, the AC50 was > 70 µM (inactive).

For `O=C(c1ccc(S(=O)(=O)N2CCCCC2)cc1)N1CCN(Cc2ccc3c(c2)OCO3)CC1`, the AC50 is > 70 µM (inactive). For `C[C@H]1CN([C@@H](C)CO)C(=O)Cc2cc(NC(=O)Nc3ccccc3)ccc2O[C@H]1CN(C)Cc1ccccc1`, the AC50 is > 70 µM (inactive). In the case of `COc1ccc(/C=C/C(=O)c2cc(F)ccc2OC(=O)c2ccccc2OC)cc1OC` it was 23.5 µM; in that of `COC1/C=C/C=C(\C)Cc2cc(O)c(Cl)c(c2)N(C)C(=O)CC(OC(=O)C(C)C)C2(C)OC2C(C)C2CC1(O)NC(=O)O2` (configuration not stated), > 70 µM (inactive). As to `O=C(NCc1ccccc1CN1CCCC1)c1cc2ccccc2o1`, the AC50 is > 70 µM (inactive). In the case of `COc1ccc(/C=C2\CN(Cc3ccccc3)C/C(=C\c3ccc(OC)c(O)c3)C2=O)cc1O` it was 6.12 µM. As for `Cc1noc(C)c1-c1ccc(C(=O)NCc2ccc(Cl)cc2)c2occc12`, the AC50 was > 70 µM (inactive). Consider `C=CC[C@H](CC(=O)N(CCO)Cc1ccccc1)C(=O)N[C@H](COC(=O)[C@@H](CC=C)Cc1ccc(F)cc1)Cc1c[nH]c2ccccc12`, for which the AC50 was 30.8 µM. With `COc1ccc(/C=C2\Sc3ccc(C(=O)NCCCN4CCCC4)cc3N(C)C2=O)cc1OC`, the AC50 was 35.2 µM. In the case of `COc1cccc2c1C(=O)c1c(O)c3c(c(O)c1C2=O)CC(O)(C(C)=NO)CC3OC1CC(N)C(O)C(C)O1` (configuration not stated) it was 5.56 µM; in that of `CCOC(=O)C1(CCOc2ccccc2)CCN(Cc2ccc(O)cc2)CC1`, > 70 µM (inactive). `CCOC(=O)c1c(CN2CCN(C)CC2)n(-c2ccccc2)c2cc(Br)c(O)cc12`: the AC50 was 23.9 µM. With `CCOc1cc(/C=C/C(=O)c2ccc(O)cc2)ccc1OCC(=O)N(C)C`, the half-maximal activity concentration (AC50) was 39.4 µM.

For the molecule `Cc1ccc(S(=O)(=O)N(C)c2ccc(OC(=O)COc3ccccc3)cc2)cc1`, the AC50 is > 70 µM (inactive). In the case of `COC(=O)c1ccc(NC(=S)NCCc2cccc(C)c2)cc1` it was > 70 µM (inactive). In the case of `C[C@H]1CN([C@@H](C)CO)C(=O)Cc2cc(NC(=O)Nc3ccccc3)ccc2O[C@@H]1CN(C)Cc1ccccc1` it was 37.9 µM. In the case of `CCN1CCN(Cc2ccc(NC(=O)c3cc(NC(=O)c4cc(-c5ccc(OC)cc5)n[nH]4)cc(OC)c3)cc2C(F)(F)F)CC1` it was 6.45 µM; in that of `CC[C@]12c3[nH]c4cc(-c5ccco5)ccc4c3CCN1C(=O)[C@@H](CC(=O)NCc1ccco1)C[C@@H]2C(=O)N1CCN(C(=O)c2ccco2)CC1`, > 70 µM (inactive); in that of `COc1ccc(-c2nnc3ccc(SCC(=O)Nc4nc5ccccc5s4)nn23)cc1OC`, > 70 µM (inactive). `O=c1cc(CN2CCN(S(=O)(=O)/C=C/c3ccccc3)CC2)c2ccc(O)cc2o1`: the AC50 is > 70 µM (inactive). In the case of `CCOC(=O)c1c(CNCCN(CC)CC)n(C)c2cc(Br)c(OC)cc12`, the AC50 is > 70 µM (inactive). In the case of `CC(=O)OC1CCC2C3CCC4=C(CC(F)C(=O)C4)C3CCC12C` (configuration not stated), the AC50 was > 70 µM (inactive). In the case of `COc1ccc(OCCN2CCC(C(=O)NC(c3ccsc3)c3ccccc3C)CC2)cc1` (configuration not stated) it was > 70 µM (inactive); in that of `CC(C)Sc1nnc([C@H](Cc2c[nH]c3ccccc23)NC(=O)OC(C)(C)C)o1`, > 70 µM (inactive).

Consider `COc1ccc(Oc2ccc(/C=C/C(=O)c3ccc(O)cc3)cc2[N+](=O)[O-])cc1`, for which the concentration at half-maximal activity (AC50) is 12.4 µM. `CCOC(=O)c1c(CN2CCOCC2)n(-c2ccccc2)c2ccc(O)cc12`: the AC50 was > 70 µM (inactive). In the case of `O=C(Nc1nc2ccccc2s1)c1cccc(S(=O)(=O)N2CCc3ccccc32)c1` it was > 70 µM (inactive). Turning to `C[C@@H]1CN([C@H](C)CO)C(=O)c2cccc(NS(C)(=O)=O)c2O[C@@H]1CN(C)Cc1ccc(Oc2ccccc2)cc1`, the AC50 was > 70 µM (inactive). As to `CCOc1ccc(CCN2C(=O)C(=O)N([C@@H](CC(C)C)CN3CCC[C@@H]3CN3C(=O)C(=O)NC[C@@H]3Cc3ccccc3)C[C@@H]2Cc2ccc(O)cc2)cc1`, the AC50 is 38.1 µM. In the case of `Cc1noc(C)c1S(=O)(=O)Nc1ccc2c(c1)CC(=O)N([C@@H](C)CO)C[C@@H](C)[C@@H](CN(C)S(=O)(=O)c1ccc(F)cc1)O2`, the AC50 was > 70 µM (inactive).

In the case of `NNC(=O)c1cc(-c2ccc(O)cc2)nc2ccc(Br)cc12`, the AC50 is > 70 µM (inactive). In the case of `CCOC(=O)C1(CCOc2ccccc2)CCN(Cc2ccc(O)c(Cl)c2)CC1` it was > 70 µM (inactive); in that of `CCOc1cc(N2CCOCC2)c(OCC)cc1NC(=O)COC(=O)[C@H](Cc1c[nH]c2ccccc12)NC(C)=O`, > 70 µM (inactive). For the molecule `COc1ccc(C[C@@H]2OC3(C=CC(=O)C=C3)O[C@H]2Cc2ccc(OC)cc2)cc1`, the AC50 is 1.69 µM. Take `CN(C)CCCN(C(=O)c1ccc(S(=O)(=O)N2CCc3ccccc32)cc1)c1nc2c(Cl)cccc2s1`: the AC50 is 16.5 µM.

Turning to `Cc1cccn2c(CN(C)C3CCCc4ccccc43)c(C(=O)N3CCOCC3)nc12` (configuration not stated), the AC50 was > 70 µM (inactive).

As for `Cc1ccc2c(c1)Oc1ccc(NC(=O)CCl)cc1C(=O)N2`, the half-maximal activity concentration (AC50) was 8.51 µM.

In the case of `Oc1cccc(-c2nc3c4c(ncn3n2)-c2ccccc2CC42CCCC2)c1`, the AC50 is 14.3 µM. Take `Cc1cc(C(=O)Cn2nnc3ccccc3c2=O)c(C)n1-c1ccccc1F`: the AC50 was > 70 µM (inactive). For the molecule `NC(Cc1ccc(C(F)(F)F)cc1)c1csc(Nc2ccc(C(=O)NCCCO)cn2)n1` (configuration not stated), the AC50 is 35.1 µM. Turning to `CN(c1ccccc1)S(=O)(=O)c1cc(C(=O)N2CCN(c3ncccn3)CC2)ccc1Cl`, the AC50 is > 70 µM (inactive). Regarding `COc1ccc(C[C@@H]2CN3C(=NC[C@@H]3Cc3ccc(O)cc3)N2C[C@H](C)NC(=O)CCC2CCCCC2)cc1`, the AC50 was 18.8 µM.

As for `O=S(=O)(Nc1ccc(C(O)(C(F)(F)F)C(F)(F)F)cc1)c1ccc(Cl)c2nonc12`, the concentration at half-maximal activity (AC50) is 9.47 µM. In the case of `C[C@]12CC[C@@H]3c4ccc(O)cc4C(=O)C[C@H]3[C@@H]1CC[C@@H]2O` it was > 70 µM (inactive); in that of `CS(=O)(=O)c1ccc(C(=O)OCC(=O)N2CCN(CCC3CCCCC3)CC2)cc1[N+](=O)[O-]`, 3.32 µM; in that of `O=C(Nc1ccccc1N1CCCC1)c1cc(Cl)ccc1Cl`, > 70 µM (inactive). On to `CCOC(=O)c1c(CN(C)C)n(-c2ccccc2)c2cc(Br)c(O)cc12`, for which the AC50 is > 70 µM (inactive). For `O=C(CCc1nc(-c2ccccc2F)no1)Nc1ccc(Oc2ccccc2)cc1`, the AC50 was > 70 µM (inactive).

Take `O=C1N[C@@H](Cc2c[nH]c3ccccc23)COC(=O)[C@@H](Cc2ccc(F)cc2)C/C=C\C[C@H]1CC(=O)N(CCO)Cc1ccccc1`: the AC50 is 30.2 µM.

For the molecule `Nc1ccc(C(=O)NN2C(=O)[C@H](Cl)C2c2ccc(Cl)cc2)cc1` (some centres not stated), the concentration at half-maximal activity (AC50) was 6.04 µM. For `Cc1cc(O)cc2c1C1CCC3(C)C(=O)CCC3C1C=C2` (configuration not stated), the AC50 is > 70 µM (inactive).

`C[C@@H]1CN([C@@H](C)CO)C(=O)c2cc(NC(=O)Cc3cn(C)c4ccccc34)ccc2O[C@@H]1CN(C)S(=O)(=O)c1ccc(F)cc1`: the AC50 was > 70 µM (inactive). `Cc1ccc(NC(=O)CSC(C)C(=O)OCc2cc(=O)oc3cc(O)ccc23)cc1` (configuration not stated): the AC50 is > 70 µM (inactive).

Take `CCOC(=O)C1(CCOc2ccccc2)CCN(Cc2cccc(O)c2)CC1`: the AC50 was > 70 µM (inactive). In the case of `O=C(NC(Cc1c[nH]c2ccccc12)C(=O)N/N=C/c1cccnc1)c1cccs1` (configuration not stated) it was > 70 µM (inactive); in that of `CCOc1cc(N2CCOCC2)c(OCC)cc1NC(=O)Cc1ccccc1OC`, 39.5 µM.

For `CCOC(=O)c1c(CN2CCOCC2)n(-c2ccccc2)c2cc(Br)c(O)cc12`, the AC50 was > 70 µM (inactive). For the molecule `O=C(COC(=O)c1ccccc1NC(=O)c1ccco1)NCCC1=CCCCC1`, the AC50 is > 70 µM (inactive). In the case of `COc1cc(C2C(C#N)=C(N)Oc3cc(O)ccc32)cc(OC)c1OC` (configuration not stated) it was > 70 µM (inactive); in that of `Cc1sc(NC(=O)CCl)c(C(=O)c2ccccc2)c1C`, 15.4 µM.
